In general, IC50 refers to the midpoint of a concentration-inhibition curve.

Structures are written as SMILES.

One experiment deals with HDAC6 (Homo sapiens (Human), UniProt Q9UBN7). Conditions: read-out: HDAC6 IC50.
The next experiment has as its target HDAC1 (Homo sapiens (Human), UniProt Q13547). Briefly: HDAC enzyme assay, HDAC1. Conditions: for HDAC1 fold over HDAC6 IC50 (selectivity for HDAC6): ratio HDAC1/HDAC6; for IC50: read-out: HDAC1 IC50.
The next experiment has as its target HDAC3 (Homo sapiens (Human), UniProt O15379). Description: HDAC enzyme assay, HDAC3. Conditions: for HDAC3 fold over HDAC6 IC50 (selectivity for HDAC6): ratio HDAC3/HDAC6; for IC50: read-out: HDAC3 IC50.
The target in the next experiment is HDAC2 (Homo sapiens (Human), UniProt Q92769). Description: HDAC enzyme assay, HDAC2. Conditions: for HDAC2 fold over HDAC6 IC50 (selectivity for HDAC6): ratio HDAC2/HDAC6; for IC50: read-out: HDAC2 IC50.
Chain of HDAC2 (Q92769 whole entry): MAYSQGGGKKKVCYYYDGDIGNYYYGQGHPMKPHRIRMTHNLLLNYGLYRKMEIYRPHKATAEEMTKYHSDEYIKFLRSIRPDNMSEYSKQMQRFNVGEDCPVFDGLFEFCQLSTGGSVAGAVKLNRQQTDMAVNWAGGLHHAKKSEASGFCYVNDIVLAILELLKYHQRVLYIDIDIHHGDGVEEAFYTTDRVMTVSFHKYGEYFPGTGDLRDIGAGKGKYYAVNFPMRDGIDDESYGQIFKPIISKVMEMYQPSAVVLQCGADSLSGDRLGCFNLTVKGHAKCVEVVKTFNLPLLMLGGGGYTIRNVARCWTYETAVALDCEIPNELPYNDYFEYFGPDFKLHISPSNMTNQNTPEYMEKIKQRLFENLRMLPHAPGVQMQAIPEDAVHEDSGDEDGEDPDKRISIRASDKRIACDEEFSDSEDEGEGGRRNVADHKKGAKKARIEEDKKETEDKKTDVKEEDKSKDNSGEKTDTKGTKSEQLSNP

Chain of HDAC1 (Q13547 whole entry): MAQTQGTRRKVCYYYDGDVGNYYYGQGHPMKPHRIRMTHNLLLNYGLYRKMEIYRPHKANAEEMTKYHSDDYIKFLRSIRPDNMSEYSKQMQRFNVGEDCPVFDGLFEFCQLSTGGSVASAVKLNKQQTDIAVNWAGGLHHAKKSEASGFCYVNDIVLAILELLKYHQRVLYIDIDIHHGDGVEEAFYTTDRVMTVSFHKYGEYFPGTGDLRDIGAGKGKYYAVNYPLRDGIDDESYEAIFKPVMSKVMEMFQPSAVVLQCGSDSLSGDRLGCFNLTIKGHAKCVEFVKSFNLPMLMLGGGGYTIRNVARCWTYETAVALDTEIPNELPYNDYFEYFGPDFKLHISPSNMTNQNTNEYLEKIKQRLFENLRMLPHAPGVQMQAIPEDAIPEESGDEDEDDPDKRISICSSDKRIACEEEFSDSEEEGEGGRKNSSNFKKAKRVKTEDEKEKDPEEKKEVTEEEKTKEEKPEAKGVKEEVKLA
Chain of HDAC6 (Q9UBN7 whole entry): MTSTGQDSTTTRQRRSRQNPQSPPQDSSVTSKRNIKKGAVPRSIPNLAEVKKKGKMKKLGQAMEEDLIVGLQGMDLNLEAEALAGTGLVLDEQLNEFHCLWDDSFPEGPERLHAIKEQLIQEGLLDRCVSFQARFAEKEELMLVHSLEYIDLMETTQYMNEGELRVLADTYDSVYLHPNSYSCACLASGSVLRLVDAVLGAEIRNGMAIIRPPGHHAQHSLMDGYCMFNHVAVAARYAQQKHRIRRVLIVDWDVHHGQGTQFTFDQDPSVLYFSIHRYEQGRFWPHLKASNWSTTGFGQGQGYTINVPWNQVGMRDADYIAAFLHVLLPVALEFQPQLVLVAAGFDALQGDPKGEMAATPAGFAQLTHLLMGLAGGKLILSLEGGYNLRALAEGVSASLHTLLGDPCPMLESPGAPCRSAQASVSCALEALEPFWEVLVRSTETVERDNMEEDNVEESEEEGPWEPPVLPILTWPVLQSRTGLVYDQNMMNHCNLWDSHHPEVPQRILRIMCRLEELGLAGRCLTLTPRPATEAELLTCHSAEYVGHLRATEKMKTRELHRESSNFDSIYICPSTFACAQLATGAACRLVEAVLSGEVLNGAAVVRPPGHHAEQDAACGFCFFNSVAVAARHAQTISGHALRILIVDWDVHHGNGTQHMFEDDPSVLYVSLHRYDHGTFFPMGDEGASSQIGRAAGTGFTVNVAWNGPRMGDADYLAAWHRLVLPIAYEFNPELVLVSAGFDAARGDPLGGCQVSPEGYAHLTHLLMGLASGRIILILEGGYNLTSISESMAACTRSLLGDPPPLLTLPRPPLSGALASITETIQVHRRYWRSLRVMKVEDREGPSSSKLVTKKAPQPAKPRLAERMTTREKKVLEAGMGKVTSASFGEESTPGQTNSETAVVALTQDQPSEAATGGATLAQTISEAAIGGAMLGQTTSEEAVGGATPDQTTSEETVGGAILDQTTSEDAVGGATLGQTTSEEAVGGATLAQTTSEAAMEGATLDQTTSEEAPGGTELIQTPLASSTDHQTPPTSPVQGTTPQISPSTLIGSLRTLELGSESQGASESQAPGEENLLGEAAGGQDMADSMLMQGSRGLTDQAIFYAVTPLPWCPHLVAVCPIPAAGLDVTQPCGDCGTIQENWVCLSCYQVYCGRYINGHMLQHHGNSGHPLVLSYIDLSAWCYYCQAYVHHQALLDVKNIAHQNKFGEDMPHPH
Chain of HDAC3 (O15379 whole entry): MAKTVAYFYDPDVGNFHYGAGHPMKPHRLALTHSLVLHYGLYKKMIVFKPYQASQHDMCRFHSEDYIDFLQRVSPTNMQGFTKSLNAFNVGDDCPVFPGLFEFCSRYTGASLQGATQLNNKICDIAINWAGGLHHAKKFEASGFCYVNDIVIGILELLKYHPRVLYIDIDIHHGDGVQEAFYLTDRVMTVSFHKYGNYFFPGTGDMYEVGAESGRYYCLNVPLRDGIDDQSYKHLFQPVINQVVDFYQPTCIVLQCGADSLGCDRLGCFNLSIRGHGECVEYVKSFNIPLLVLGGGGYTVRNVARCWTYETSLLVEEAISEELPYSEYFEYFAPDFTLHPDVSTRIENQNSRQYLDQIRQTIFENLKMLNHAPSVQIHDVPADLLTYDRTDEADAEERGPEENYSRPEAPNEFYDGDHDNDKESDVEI
Chain of HDAC3 (Q9Y618 395-489 partner): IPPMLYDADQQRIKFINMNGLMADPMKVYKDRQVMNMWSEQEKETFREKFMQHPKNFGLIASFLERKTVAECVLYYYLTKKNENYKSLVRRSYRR

`CC(C)(Nc1ncc(C(=O)NO)cn1)c1cccc(F)c1` [Compound 75]: on HDAC6, the IC50 came to 3 nM. Besides, on HDAC1, the “HDAC1 fold over HDAC6 IC50 (selectivity for HDAC6)” value is listed as “(374.2x)” and the IC50 worked out at 1140 nM. In addition, on HDAC3, the “HDAC3 fold over HDAC6 IC50 (selectivity for HDAC6)” value is “(616.6x)” and the half-maximal inhibitory concentration (IC50) was 1880 nM. Moreover, at HDAC2, the “HDAC2 fold over HDAC6 IC50 (selectivity for HDAC6)” value is “(316.3x)” and the half-maximal inhibitory concentration (IC50) is 966 nM.
With `CC(C)(Nc1ncc(C(=O)NO)cn1)c1ccc(F)c(F)c1` [Compound 76], on HDAC6, the half-inhibitory concentration (IC50) worked out at 4 nM. For the same compound, on HDAC1, the “HDAC1 fold over HDAC6 IC50 (selectivity for HDAC6)” value was “(153.3x)” and the IC50 turned out to be 624 nM. On HDAC3, the “HDAC3 fold over HDAC6 IC50 (selectivity for HDAC6)” value is given as “(260x)” and the concentration for half-maximal inhibition (IC50) amounted to 1060 nM. In addition, on HDAC2, the “HDAC2 fold over HDAC6 IC50 (selectivity for HDAC6)” value is given as “(149.7x)” and the IC50 was found to be 609 nM.
With `O=C(NO)c1cnc(NCc2cnccn2)nc1` [Compound 77], the half-maximal inhibitory concentration (IC50) on HDAC6 is 4 nM. Further, at HDAC1, the “HDAC1 fold over HDAC6 IC50 (selectivity for HDAC6)” value is reported as “(74x)” and the 50% inhibitory concentration (IC50) came out at 328 nM. Besides, at HDAC3, the “HDAC3 fold over HDAC6 IC50 (selectivity for HDAC6)” value is recorded as “(98.1x)” and the IC50 is 434 nM. Also, at HDAC2, the “HDAC2 fold over HDAC6 IC50 (selectivity for HDAC6)” value is “(76.9x)” and the IC50 turned out to be 340 nM.
In the case of `Cc1cc(C(C)(C)Nc2ncc(C(=O)NO)cn2)ccc1F` [Compound 78], the half-inhibitory concentration (IC50) on HDAC6 turned out to be 4 nM. Moreover, on HDAC1, the “HDAC1 fold over HDAC6 IC50 (selectivity for HDAC6)” value is “(137.3x)” and the 50% inhibitory concentration (IC50) was determined as 598 nM. In addition, on HDAC3, the “HDAC3 fold over HDAC6 IC50 (selectivity for HDAC6)” value was “(304.6x)” and the IC50 was 1330 nM. Further, on HDAC2, the “HDAC2 fold over HDAC6 IC50 (selectivity for HDAC6)” value is “(153.6x)” and the half-maximal inhibitory concentration (IC50) worked out at 669 nM.
For `CC(Nc1ncc(C(=O)NO)cn1)(c1ccccc1)c1ccccc1` [Compound 79], the half-maximal inhibitory concentration (IC50) at HDAC6 was found to be 6 nM. On HDAC1, the “HDAC1 fold over HDAC6 IC50 (selectivity for HDAC6)” value was “(221.6x)” and the IC50 amounted to 1270 nM. Besides, on HDAC3, the “HDAC3 fold over HDAC6 IC50 (selectivity for HDAC6)” value is “(817.2x)” and the 50% inhibitory concentration (IC50) came to 4680 nM. Moreover, on HDAC2, the “HDAC2 fold over HDAC6 IC50 (selectivity for HDAC6)” value is “(319.8x)” and the concentration for half-maximal inhibition (IC50) was determined as 1830 nM.
As for `CC(C)(Nc1ncc(C(=O)NO)cn1)c1ccc(Cl)c(Cl)c1` [Compound 80], the IC50 on HDAC6 was found to be 2 nM; on HDAC1 it was 85 nM; on HDAC3 it was 212 nM; at HDAC2, 127 nM. Besides, the “HDAC1 fold over HDAC6 IC50 (selectivity for HDAC6)” value on HDAC1 is given as “(40.4x)”. In addition, the “HDAC3 fold over HDAC6 IC50 (selectivity for HDAC6)” value at HDAC3 is “(100.3x)”. Moreover, the “HDAC2 fold over HDAC6 IC50 (selectivity for HDAC6)” value on HDAC2 was “(60.2x)”.
As for `O=C(NO)c1cnc(NC2(c3ccc(F)cc3)CC2)nc1` [Compound 81], the concentration for half-maximal inhibition (IC50) at HDAC6 was 3 nM. In addition, on HDAC1, the “HDAC1 fold over HDAC6 IC50 (selectivity for HDAC6)” value is “(18.3x)” and the IC50 came out at 47 nM. In addition, at HDAC3, the “HDAC3 fold over HDAC6 IC50 (selectivity for HDAC6)” value is on record as “(46.4x)” and the IC50 was 120 nM. On HDAC2, the “HDAC2 fold over HDAC6 IC50 (selectivity for HDAC6)” value is “(30.2x)” and the IC50 is 78 nM.
Take `CC(C)(Nc1ncc(C(=O)NO)cn1)c1ccc(Cl)cc1F` [Compound 83]: the IC50 at HDAC6 came to 3 nM; at HDAC1, 447 nM; on HDAC3, 928 nM; on HDAC2, 452 nM. In addition, the “HDAC1 fold over HDAC6 IC50 (selectivity for HDAC6)” value on HDAC1 is listed as “(139.2x)”. Further, the “HDAC3 fold over HDAC6 IC50 (selectivity for HDAC6)” value on HDAC3 is on record as “(289x)”. Besides, on HDAC2, the “HDAC2 fold over HDAC6 IC50 (selectivity for HDAC6)” value was “(140.9x)”.
Consider `O=C(NO)c1cnc(NC2(c3ccccc3)CCCCC2)nc1` [Compound 84], for which the IC50 at HDAC6 came out at 7 nM; on HDAC1, 2230 nM; at HDAC3, 4520 nM; on HDAC2 it was 2970 nM. Also, the “HDAC1 fold over HDAC6 IC50 (selectivity for HDAC6)” value at HDAC1 is on record as “(302.2x)”. Also, on HDAC3, the “HDAC3 fold over HDAC6 IC50 (selectivity for HDAC6)” value was “(613x)”. Moreover, at HDAC2, the “HDAC2 fold over HDAC6 IC50 (selectivity for HDAC6)” value is on record as “(403.4x)”.
Turning to `CC(Nc1ncc(C(=O)NO)cn1)c1ccncc1` (centres unmarked) [Compound 85], the IC50 on HDAC6 is 4 nM. Further, at HDAC1, the “HDAC1 fold over HDAC6 IC50 (selectivity for HDAC6)” value is “(18.1x)” and the IC50 is 67 nM. Further, at HDAC3, the “HDAC3 fold over HDAC6 IC50 (selectivity for HDAC6)” value is reported as “(36.9x)” and the IC50 amounted to 135 nM. In addition, at HDAC2, the “HDAC2 fold over HDAC6 IC50 (selectivity for HDAC6)” value is reported as “(26.2x)” and the IC50 was determined as 96 nM.
`CC(C)(Nc1ncc(C(=O)NO)cn1)c1ccc(C(F)(F)F)cc1F` [Compound 86]: the IC50 turned out to be 13 nM on HDAC6, 788 nM on HDAC1, 2890 nM on HDAC3 and 1290 nM on HDAC2. For the same compound, at HDAC1, the “HDAC1 fold over HDAC6 IC50 (selectivity for HDAC6)” value is on record as “(60.3x)”. In addition, at HDAC3, the “HDAC3 fold over HDAC6 IC50 (selectivity for HDAC6)” value was “(221.2x)”. For the same compound, the “HDAC2 fold over HDAC6 IC50 (selectivity for HDAC6)” value on HDAC2 is recorded as “(98.9x)”.
Take `O=C(NO)c1cnc(NC2(c3ccccc3)CCCC2)nc1` [Compound 88]: at HDAC6, the IC50 is 3 nM. Moreover, at HDAC1, the “HDAC1 fold over HDAC6 IC50 (selectivity for HDAC6)” value is on record as “(215.2x)” and the 50% inhibitory concentration (IC50) was found to be 711 nM. Besides, on HDAC3, the “HDAC3 fold over HDAC6 IC50 (selectivity for HDAC6)” value was “(679.1x)” and the 50% inhibitory concentration (IC50) is 2240 nM. At HDAC2, the “HDAC2 fold over HDAC6 IC50 (selectivity for HDAC6)” value is recorded as “(296.1x)” and the half-inhibitory concentration (IC50) stood at 978 nM.
As for `O=C(NO)c1cnc(NC(c2ccc(F)cc2)c2ccc(F)cc2)nc1` [Compound 89], the IC50 at HDAC6 was 3 nM. In addition, at HDAC1, the “HDAC1 fold over HDAC6 IC50 (selectivity for HDAC6)” value is listed as “(64.4x)” and the concentration for half-maximal inhibition (IC50) was determined as 223 nM. Moreover, on HDAC3, the “HDAC3 fold over HDAC6 IC50 (selectivity for HDAC6)” value was “(158.8x)” and the IC50 came to 549 nM. Also, on HDAC2, the “HDAC2 fold over HDAC6 IC50 (selectivity for HDAC6)” value is on record as “(78.1x)” and the half-inhibitory concentration (IC50) is 270 nM.
In the case of `O=C(NO)c1cnc(NC2(c3ccccc3Cl)CC2)nc1` [Compound 90], the 50% inhibitory concentration (IC50) on HDAC6 turned out to be 1 nM. Besides, at HDAC1, the “HDAC1 fold over HDAC6 IC50 (selectivity for HDAC6)” value was “(19.9x)” and the IC50 is 27 nM. Also, on HDAC3, the “HDAC3 fold over HDAC6 IC50 (selectivity for HDAC6)” value is “(30.2x)” and the half-inhibitory concentration (IC50) came out at 41 nM. Moreover, at HDAC2, the “HDAC2 fold over HDAC6 IC50 (selectivity for HDAC6)” value is “(26.2x)” and the 50% inhibitory concentration (IC50) amounted to 36 nM.
In the case of `O=C(NO)c1cnc(NC2(c3ccccc3C(F)(F)F)CC2)nc1` [Compound 91], the half-maximal inhibitory concentration (IC50) at HDAC6 came out at 2 nM. At HDAC1, the “HDAC1 fold over HDAC6 IC50 (selectivity for HDAC6)” value was “(72.3x)” and the half-inhibitory concentration (IC50) amounted to 160 nM. At HDAC3, the “HDAC3 fold over HDAC6 IC50 (selectivity for HDAC6)” value is “(169.4x)” and the IC50 was 374 nM. Also, at HDAC2, the “HDAC2 fold over HDAC6 IC50 (selectivity for HDAC6)” value was “(130.2x)” and the IC50 is 288 nM.
With `CC(C)(Nc1ncc(C(=O)NO)cn1)c1cc(C(F)(F)F)cc(C(F)(F)F)c1` [Compound 92], at HDAC6, the 50% inhibitory concentration (IC50) is 33 nM. Besides, on HDAC1, the “HDAC1 fold over HDAC6 IC50 (selectivity for HDAC6)” value is reported as “(41.3x)” and the 50% inhibitory concentration (IC50) stood at 1360 nM. Besides, on HDAC3, the “HDAC3 fold over HDAC6 IC50 (selectivity for HDAC6)” value is given as “(134.4x)” and the IC50 stood at 4420 nM. In addition, at HDAC2, the “HDAC2 fold over HDAC6 IC50 (selectivity for HDAC6)” value is listed as “(68x)” and the concentration for half-maximal inhibition (IC50) was found to be 2240 nM.
On to `Cc1ccc(C2(Nc3ncc(C(=O)NO)cn3)CC2)cc1` [Compound 93], for which the IC50 came to 3 nM at HDAC6, 80 nM on HDAC1, 157 nM at HDAC3 and 107 nM at HDAC2. Further, the “HDAC1 fold over HDAC6 IC50 (selectivity for HDAC6)” value on HDAC1 was “(25.9x)”. Also, the “HDAC3 fold over HDAC6 IC50 (selectivity for HDAC6)” value at HDAC3 is listed as “(51x)”. Also, the “HDAC2 fold over HDAC6 IC50 (selectivity for HDAC6)” value on HDAC2 is “(34.7x)”.

For the origin of these results see patent publication US8614223B2, “Pyrimidine hydroxy amide compounds as protein deacetylase inhibitors and methods of use thereof” (Acetylon Pharmaceuticals, Inc., priority 2010, dated 2013).
